Assay [1] has as its system IFN induction in virus-stimulated THP1 cells. Description: Human cGAS cell assay, virus-stimulated THP1-Dual cells (THP1(vir) IC50). The class given is cell-based. The following applies: THP-1, 18 h, Table 1, baculovirus-stimulated THP1-Dual cells, Lucia luciferase, 18 h, read-out: THP(vir) IC50. An excerpt:
6.2 Method: Human cGAS Cell Assay and cGAMP Stimulated Counter Cell Assay (THP1(vir) IC50 and THP1(cGAMP) IC50)
THP1-Dual™ cells (InvivoGen #thpd-nfis) expressing IRF dependent Lucia luciferase reporter were used as basis for both assays. For the detection of cellular cGAS activity cells were stimulated by a baculovirus (pFastbac-1, Invitrogen, no coding insert) infection that delivers the cGAS enzyme stimulating double-stranded DNA (measurement of THP1(vir) IC50).
Pathway activity was monitored by measuring the Lucia luciferase activity induced by either DNA stimulated cGAS enzyme activity (measurement of THP1(vir) IC50) or by cGAMP directly (measurement of THP1(cGAMP) IC50, counter assay).
Compounds were delivered in 10 mM DMSO solution, serially diluted and transferred to the 384 well assay plate (Greiner #781201) using an Echo acoustic dispenser. Typically, 8 concentrations were used with the highest concentration at 10 μM in the final assay volume followed by ^˜1:5 dilution steps. DMSO concentration was set to 1% in the final assay volume. The 384 well assay plate contained […] (column 1-22), and DMSO in column 23 and 24.
Cells, cultivated according to manufacturer conditions, were harvested by centrifugation at 300 g/10 min and were then resuspended and diluted to 1.66E5 cells/ml in fresh cell culture medium (RPMI 1640 (Gibco #A10491-01), 10% FCS (Gibco #10500), 1× GlutaMax (Gibco #35050-061), 1× Pen/Strep solution (Gibco #15140-122), 100 μg/ml Normocin (InvivoGen #ant-nr), 100 μg/ml Zeocin (InvivoGen #ant-zn), 10 μg/ml Blasticidin S (Life Technologies #A11139-03)). The baculovirus solution was then added 1:200 (have varied according to virus batch) to the cells (measurement of THP1(vir) IC50).
30 μL of the cell/virus-mix were added to each well of the compound plate from column 1-23 via MultiDrop Combi dispenser (5000 cells/well). In column 24, 30 μl/5000 cells/well without virus were added as a low control.
The plates were then incubated for 18 h at 37° C. in a humidified incubator.
Following that, 15 μL of QuantiLuc detection reagent (InvivoGen #rep-qlcg5) were added to each well using a MultiDrop Combi. Measurement was done immediately after the addition using an EnVision reader (US-luminescence read-mode).
(§1) Data Evaluation and Calculation:
For data evaluation and calculation, the measurement of the low control was set as 0% control and the measurement of the high control was set as 100% control. The IC50 values were calculated using the standard 4 parameter logistic regression formula. Calculation: [y=(a−d)/(1+(x/c)^b)+d], a=low value, d=high value; x=conc M; c=IC50 M; b=slope

Assay [2] deals with IFN induction in dsDNA-stimulated human whole blood. Description: Human whole blood assay (hWB IC50), dsDNA stimulated, IFNα2α production. Format: cell-based. Conditions: Table 1. How it is done:
6.3 Method: Human Whole Blood Assay (Human WB IC50)
For the detection of cellular cGAS activity human whole blood was stimulated by transfection with double stranded DNA. Pathway activity was monitored by measuring the IFNα2α production.
Compounds were delivered as 10 mM DMSO solution and serially diluted and transferred to the 96-well cell culture plate (Corning #3595), prefilled with 20 μl OptiMEM (Gibco, #11058-021) in each well, using an Echo acoustic dispenser. Typically, 8 concentrations were used with the highest concentration at 10 μM in the final assay volume followed by ^˜1:5 dilution steps. DMSO concentration was set to 0.1% in the final assay volume. The 96-well assay plate contained 10 test compounds, and DMSO in control wells.
Collection of human whole blood from 3 or more healthy donors (male or female, no medication for 7 days except contraceptive and thyroxine) as Na-Citrate blood (e.g. 3.8% in Monovettes from Sarstedt) was conducted in parallel. Whole blood was kept at room temperature for a maximum of 3 hours after collection until use in the assay. 160 μl of the whole blood samples was transferred to each well of the 96-well assay plates filled with compound/OptiMEM. All assay plates were prepared as duplicates with blood from different donors. Blood plates were kept at room temperature for 60 minutes and continuous shaking with 450 rpm, covered with the lid, but not sealed.
20 μl OptiMEM and 9.6:1 Fugene was added to all low control wells.
After covering assay plates with aera seals and the lid, blood plates were kept at room temperature for 30 minutes and continuous shaking with 450 rpm, followed by an overnight incubation of 22 h at 37° C. in the incubator, without shaking.
For the detection of IFNα-2α in human plasma, the biotinylated capture antibody (Antibody set IFNA2, Meso Scale Diagnostics #B21VH-3, including coating and capture antibody) was diluted 1:17.5 in Diluent 100 (Meso Scale Diagnostics #R50AA-4), according to the manufacturer's directions. U-Plex MSD GOLD 96-well Small Spot Strepavidin SECTOR Plates (Meso Scale Diagnostics #L45SA-5) were coated with 25 μl diluted capture antibody. Coated plates were incubated for 60 min at room temperature under continuous shaking at 700 rpm. MSD IFNα-2α plates were washed three times with 150 μl wash buffer (1× HBSS, 0.05% Tween).
After blocking the plates with 100 μl block solution/well (1× HBSS with 0.2% Tween, 2% BSA) for 60 min at room temperature and continuous shaking at 700 rpm, plates were emptied as dry as possible by dumping just before continuing with the human plasma.
Whole Blood assay plates were centrifuged at 1600 rpm for 10 minutes. 25 μl of supernatant was transferred with a pipetting robot from each whole blood plate to the corresponding IFNα-2α plate. Plates were sealed with microplate seals and kept at room temperature again under continuous shaking at 700 rpm for two hours.
Next MSD IFNα-2α plates were washed three times with 150 μl wash buffer (1× HBSS, 0.05% Tween), before adding 25 μl MSD SULFO-TAG IFNα-2α Antibody solution (1:100 diluted in Diluent 3 (Meso Scale Diagnostics #R50AP-2) to each well of the plates.
Afterwards plates were sealed with microplate seals and kept at room temperature again under continuous shaking at 700 rpm for two hours. Finally, MSD IFNα-2α plates were washed three times with 150 μl wash buffer (1× HBSS, 0.05% Tween). 150 μl 2× Read buffer was added to each well and plates were immediately measured with the MSD Sector S600 Reader using the vendor barcode.
as §1
For data evaluation and calculation, % control calculation of each well was based on the mean of high (DNA stimulated control) and mean of low (unstimulated control) controls by using the following formula:
[counts(sample)−counts(low))/(counts(high)−counts(low))]*100
The IC50-values were calculated using the standard 4 parameter logistic regression formula. […]

In US20240208997A1, “CYCLIC BENZIMIDAZOLE DERIVATIVES AS CGAS INHIBITORS” (Boehringer Ingelheim International GmbH, priority 2022, published 2024) one finds IC50 data, which are given here for 18 compounds.

As usually defined, the IC50 is the concentration that gives 50% inhibition.

As to `C[C@H]1CN2CC[C@@H]1n1c(nc3ccc(Cl)cc31)O[C@H]1C[C@@H](C(=O)O)N(C1)c1nc(nc3c1oc1ccccc13)CCOCCCC2=O` [Example 1.06], the half-inhibitory concentration (IC50) in assay [1] came out at 0.0041 µM; in assay [2], 0.015 µM.
On the same counts, the results for `C[C@H]1CN2CC[C@@H]1n1c(nc3ccc(Cl)cc31)O[C@H]1C[C@@H](C(=O)O)N(C1)c1nc(nc3c1oc1ccccc13)COCCCCC2=O` [Example 1.10] are 0.013 µM and 0.012 µM.
The like results for `C[C@H]1CN2CC[C@@H]1n1c(nc3ccccc31)O[C@H]1C[C@@H](C(=O)O)N(C1)c1nc(nc3c1oc1ccccc13)CCOCCCC2=O` [Example 1.05] were, in that order, 0.0029 µM and 0.005 µM.
On the same counts, the results for `C[C@H]1CN2CC[C@@H]1n1c(nc3cc(Cl)ccc31)O[C@H]1C[C@@H](C(=O)O)N(C1)c1nc(nc3c1oc1ccccc13)CCOCCCC2=O` [Example 1.02] are 0.0028 µM and 0.005 µM.
Consider `C[C@H]1CN2CC[C@@H]1n1c(nc3cc(Cl)ccc31)O[C@H]1C[C@@H](C(=O)O)N(C1)c1nc(nc3c1oc1ccccc13)C(F)(F)CCCOCC2=O` [Example 1.21], for which the IC50 came out at 0.0019 µM in assay [1] and 0.001 µM in assay [2].
On the same counts, the results for `C[C@H]1CN2CC[C@@H]1n1c(nc3ccccc31)O[C@H]1C[C@@H](C(=O)O)N(C1)c1nc(nc3c1oc1cc(Cl)ccc13)C(F)(F)CCCCCC2=O` [Example 1.16] are 0.0097 µM and 0.01 µM.
In the case of `C[C@H]1CN2CC[C@@H]1n1c(nc3cccc(Cl)c31)O[C@H]1C[C@@H](C(=O)O)N(C1)c1nc(nc3c1oc1ccccc13)CC(=O)NCCCC2=O` (racemic) [Example 2.01, (12S,14S)-4-chloro-37-methyl-29,34-dioxo-11,18-dioxa-2,9,15,26,30,35,40-heptaazaoctacyclo[33.2.2.1^12,15.1^16,27.0^2,10.0^3,8.0^17,25.0^19,24]hentetraconta-3,5,7,9,16(40),17(25),19(24),20,22,26-decaene-14-carboxylic acid], the concentration for half-maximal inhibition (IC50) in assay [1] was 0.011 µM; in assay [2], 0.035 µM.
As to `C[C@H]1CN2CC[C@@H]1n1c(nc3ccccc31)O[C@H]1C[C@@H](C(=O)O)N(C1)c1nc(nc3c1oc1ccccc13)CCCCCC2=O` [Example 1.19], the half-maximal inhibitory concentration (IC50) stood at 0.04 µM in assay [1] and 0.018 µM in assay [2].
On the same counts, the results for `O=C(O)[C@@H]1C[C@H]2CN1c1nc(nc3c1oc1ccccc13)CCOCCCC(=O)N1CCC(CC1)n1c(nc3cc(F)ccc31)O2` [Example 1.03] are 0.11 µM and 0.036 µM.
The like results for `O=C(O)[C@@H]1C[C@H]2CN1c1nc(nc3c1oc1ccccc13)CCCOCC(=O)N1CCC(CC1)n1c(nc3ccccc31)O2` [Example 9.01] were, in that order, 0.4 µM and 0.041 µM.
On the same counts, the results for `C[C@@H]1CC(=O)N2CCC(CC2)n2c(nc3ccccc32)O[C@H]2C[C@@H](C(=O)O)N(C2)c2nc(nc3c2oc2ccccc23)CCCO1` [Example 7.01] are 0.15 µM and 0.101 µM.
Turning to `C[C@@H]1CN2CC[C@H]1n1c(nc3cc(Cl)ccc31)O[C@H]1C[C@@H](C(=O)O)N(C1)c1nc(nc3c1oc1ccccc13)CCOCCCC2=O` [Example 1.01], the figures for the IC50 in assay [1] and in assay [2] were 0.039 µM and 0.087 µM, respectively.
Regarding `CC1CCc2nc(c3oc4ccccc4c3n2)N2C[C@H](C[C@H]2C(=O)O)Oc2nc3cc(Cl)ccc3n2[C@H]2CCN(C[C@@H]2C)C(=O)CCO1` (stereo partly drawn) [Example 1.20], the IC50 turned out to be 0.013 µM in assay [1] and 0.007 µM in assay [2].
The like results for `C[C@H]1CN2CC[C@@H]1n1c(nc3cc(Cl)ccc31)O[C@H]1C[C@@H](C(=O)O)N(C1)c1nc(nc3c1oc1ccccc13)C(F)(F)CCCCCC2=O` [Example 1.12] were, in that order, 0.0022 µM and 0.005 µM.
On the same counts, the results for `C[C@H]1CN2CC[C@@H]1n1c(nc3cc(Cl)ccc31)O[C@H]1C[C@@H](C(=O)O)N(C1)c1nc(nc3c1oc1cc(F)ccc13)CCCCOCC2=O` [Example 1.09] are 0.0043 µM and 0.002 µM.
For the compound `C[C@H]1CN2CC[C@@H]1n1c(nc3ccccc31)O[C@H]1C[C@@H](C(=O)O)N(C1)c1nc(nc3c1oc1cc(F)ccc13)C(F)(F)CCCCCC2=O` [Example 1.14], the IC50 in assay [1] was 0.0015 µM; in assay [2] it was 0.004 µM.
The like results for `C[C@H]1CN2CC[C@@H]1n1c(nc3ccccc31)O[C@H]1C[C@@H](C(=O)O)N(C1)c1nc(nc3c1oc1ccccc13)CCCCCCC2=O` (racemic) [Example 1.24] were, in that order, 0.17 µM and 0.086 µM.
As for `O=C(O)[C@@H]1C[C@H]2CN1c1nc(nc3c1oc1ccccc13)OCCCCOC(=O)N1CCC(CC1)n1c(nc3ccccc31)O2` [Example 11.01], the IC50 in assay [1] came to 0.18 µM; in assay [2], 0.138 µM.
